Results from patent US10555987B2, “GHRH agonists for the treatment of ischemic disorders” (UNIVERSITY OF MIAMI, priority 2012, dated 2020).
Non-standard residues stand in square brackets, D forms with d. Residues, ends and D or L forms follow the SMILES beside them. *: point of attachment. Desaminotyrosyl = O=C(CCc1ccc(O)cc1)*; NMeY = CN[C@@H](Cc1ccc(O)cc1)C(=O)O; Agmatine = N=C(N)NCCCCN*; Nle = CCCC[C@H](N)C(=O)O; Orn = NCCC[C@H](N)C(=O)O; Abu = CC[C@H](N)C(=O)O

Legend:
[1] = test system: myocardial infarction (Fisher-344 rats); experiment: Echocardiography in rat myocardial infarction model, treatment from 4 weeks post-MI (Example 13); assay type: in vivo; details: mean ± SEM; for EF (4 Weeks): 50 μg/kg s.c. twice daily for 4 weeks; for EF (Baseline): ejection fraction at baseline
Protocol: Myocardial infarction (MI) was induced by permanent ligation of the left coronary artery in female 6-month-old Fisher-344 rats. Animals were randomly assigned to receive placebo (DMSO+propylene glycol) or one of the GHRH-agonists (JI-38, MR-356/P-20356, MR-409/P-27409, all 50 μg/kg), starting 4 weeks post-MI. All treatment was given subcutaneously twice daily for 4 weeks.
Echocardiographic measurements were obtained at baseline, 2 days, 1, 2 and 4 weeks. Echocardiographic assessments were performed in anesthetized rats (2% isoflurane inhalation) using a Vevo-770 echocardiogram (Visual Sonics Inc., Toronto, Ontario, Canada) equipped with a 17.5-MHz transducer. Cardiac dimensions: LV end diastolic (LVEDD), end systolic (LVESD) diameters and fractional shortening (FS) were recorded from M-mode images using averaged measurements from 3 to 5 consecutive cardiac cycles according to the American Society of Echocardiography. Ejection fraction (EF) was calculated from bi-dimensional long-axis parasternal views taken through the infarcted area. All images were analyzed using Vevo 770 3.0.0 software (Visual Sonics Inc., Toronto, Ontario, Canada).

[2] = test system: myocardial infarction (Fisher-344 rats); experiment: Hemodynamic analysis (pressure-volume loops), body and heart weight after MI, compared to JI-38 (Example 15, Table 16); assay type: in vivo, rat; set-up: key to ESP (End-Systolic Pressure) / EDP (End-Diastolic Pressure) / ESV (End-Systolic Volume) / PRSW (Preload Recruitable Stroke Work) / Ees (End-systolic Elastance) / dP/dt max (peak rate of the pressure rise) / dP/dt max_EDV / dP/dt min / TAU (relaxation time constant calculated by Weiss method) / SV (Stroke Volume) / CO (Cardiac Output) / SW (Stroke Work) / EF / Ea/Ees / Ea (arterial Elastance): ↓: downward arrow denotes lower than JI-38; ↑: upward arrow denotes greater than JI-38; =denotes same as JI-38; ⬇⬇: double arrow denotes greater effect; ⬆⬆: double arrow denotes greater effect; details: for CO (Cardiac Output) / EDP (End-Diastolic Pressure) / EF / ESP (End-Systolic Pressure) / ESV (End-Systolic Volume) / Ea (arterial Elastance) / Ea/Ees / Ees (End-systolic Elastance) / PRSW (Preload Recruitable Stroke Work) / SV (Stroke Volume) / SW (Stroke Work) / TAU (relaxation time constant calculated by Weiss method) / dP/dt max (peak rate of the pressure rise) / dP/dt max_EDV / dP/dt min: rat MI model, s.c. twice daily, pressure-volume loops, expressed in comparison to JI-38
Outline: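 Female 6-month-old Fisher-344 rats after permanent left coronary ligation received GHRH agonists subcutaneously twice daily from 2 h post-surgery (n=10/group). Under ketamine/xylazine/acepromazine anesthesia, LV pressure-volume loops were recorded via carotid micromanometer catheter, calibrated by hypertonic saline bolus and cuvette method; echocardiography also serial.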

[3] = test system: myocardial infarction (Fischer 344 rats); experiment: Echocardiography in rat MI model, treatment from 2 hours post-surgery (Example 14); assay type: in vivo; details: echocardiographic measurements at day 2 post-MI
Protocol: MI was induced in female 6-month-old Fischer 344 rats by permanent ligation of left ventricular (LV) anterior descending coronary artery. Animals were randomly assigned to receive placebo or one of the following GHRH agonists (MR-356, MR-361, MR-367, MR-403, MR-404, MR-409 and MR-502) starting 2 hours post-surgery. All treatment (50 μg/kg) was given subcutaneously twice daily for 4 weeks. The Institutional Animal Care and Use committee of the University of Miami approved all protocols and experimental procedures.
Longitudinal evaluation of LV remodeling was obtained by echocardiographic measurements between baseline and 4 weeks following MI. Echocardiographic assessments were performed in anesthetized rats (1-2% isoflurane inhalation) using a Vevo-770 echocardiogram (Visual Sonics Inc., Toronto, Ontario, Canada) equipped with 25 MHz transducer. Cardiac dimensions were recorded from M-mode images using averaged measurements from 3 to 5 consecutive cardiac cycles. LV end-diastolic and end-systolic volumes and ejection fraction (EF) were calculated from bi-dimensional long-axis parasternal views taken through the infarcted area. All images were analyzed using Vevo 770 3.0.0 software (Visual Sonics).

| Compound | EF (4 Weeks) [1] | EF (Baseline) [1] | PRSW, index of contractility ([2]; after MI) | CO (Cardiac Output) [2] | EDP (End-Diastolic Pressure) [2] | EF [2] | ESP (End-Systolic Pressure) [2] | ESV (End-Systolic Volume) [2] | Ea (arterial Elastance) [2] | Ea/Ees [2] | Ees (End-systolic Elastance) [2] | PRSW (Preload Recruitable Stroke Work) [2] | SV (Stroke Volume) [2] | SW (Stroke Work) [2] | TAU (relaxation time constant calculated by Weiss method) [2] | dP/dt max (peak rate of the pressure rise) [2] | dP/dt max_EDV [2] | dP/dt min [2] | EF at day 2 post-MI [3] |
| --- | --- | --- | --- | --- | --- | --- | --- | --- | --- | --- | --- | --- | --- | --- | --- | --- | --- | --- | --- |
| CCCC[C@H](NC(=O)[C@@H](NC(=O)[C@H](CC(=O)O)NC(=O)[C@H](CCC(N)=O)NC(=O)[C@H](CC(C)C)NC(=O)[C@H](CC(C)C)NC(=O)[C@H](CCCN)NC(=O)[C@H](CCCNC(=N)N)NC(=O)[C@H](C)NC(=O)[C@H](CO)NC(=O)[C@H](CC(C)C)NC(=O)[C@H](CCC(N)=O)NC(=O)[C@H](CC)NC(=O)[C@H](CC(C)C)NC(=O)[C@@H](NC(=O)[C@H](CCCN)NC(=O)[C@H](CCCNC(=N)N)NC(=O)[C@H](Cc1ccc(O)cc1)NC(=O)[C@H](CO)NC(=O)[C@H](CC(N)=O)NC(=O)[C@@H](NC(=O)[C@H](Cc1ccccc1)NC(=O)[C@@H](NC(=O)[C@H](C)NC(=O)[C@H](CC(=O)O)NC(=O)[C@@H](C)NC(=O)[C@H](Cc1ccc(O)cc1)NC)[C@@H](C)CC)[C@@H](C)O)C(C)C)[C@@H](C)CC)C(=O)N[C@@H](CC(=O)O)C(=O)N[C@@H](CCCNC(=N)N)C(=O)NC [Peptide P-27409, [N—Me-Tyr^1, D-Ala^2, Orn^12, Abu^15, Orn^21, Nle^27, Asp^28]hGHRH(1-29)NH—CH3] (H-[NMeY][dA]DAIFTNSYR[Orn]VL[Abu]QLSAR[Orn]LLQDI[Nle]DR-NHMe) | 48 ± 2.8 % | 90 ± 0.8% | markedly increased | ⬆⬆ | ↑ | ⬆⬆ | ↑ | = | = | ↓ | ⬆⬆ | ⬆⬆ | = | = | = | ⬆⬆ | = | = | – |
| CCCC[C@H](NC(=O)[C@@H](NC(=O)[C@H](CC(=O)O)NC(=O)[C@H](CCC(N)=O)NC(=O)[C@H](CC(C)C)NC(=O)[C@H](CC(C)C)NC(=O)[C@H](CCCN)NC(=O)[C@H](CCCNC(=N)N)NC(=O)[C@H](C)NC(=O)[C@H](CO)NC(=O)[C@H](CC(C)C)NC(=O)[C@H](CCC(N)=O)NC(=O)[C@H](CC)NC(=O)[C@H](CC(C)C)NC(=O)[C@@H](NC(=O)[C@H](CCCN)NC(=O)[C@H](CCCNC(=N)N)NC(=O)[C@H](Cc1ccc(O)cc1)NC(=O)[C@H](CO)NC(=O)[C@H](CCC(N)=O)NC(=O)[C@@H](NC(=O)[C@H](Cc1ccccc1)NC(=O)[C@@H](NC(=O)[C@H](C)NC(=O)[C@H](CC(=O)O)NC(=O)[C@@H](C)NC(=O)[C@H](Cc1ccc(O)cc1)NC)[C@@H](C)CC)[C@@H](C)O)C(C)C)[C@@H](C)CC)C(=O)N[C@@H](CC(=O)O)C(=O)NCCCCNC(=N)N [Peptide P-20361, [N—Me-Tyr^1, D-Ala^2, Gln^8, Orn^12, Abu^15, Orn^21, Nle^27, Asp^28, Agm^29] hGHRH (1-29)NH2] (H-[NMeY][dA]DAIFTQSYR[Orn]VL[Abu]QLSAR[Orn]LLQDI[Nle]D-Agmatine) | – | – | – | = | ↑ | = | ↑ | ↑ | ↑ | ↓ | ↑ | = | ↓ | ↓ | ↑ | = | ↑ | = | slightly better preserved |
| CCCC[C@H](NC(=O)[C@@H](NC(=O)[C@H](CC(=O)O)NC(=O)[C@H](CCC(N)=O)NC(=O)[C@H](CC(C)C)NC(=O)[C@H](CC(C)C)NC(=O)[C@H](CCCN)NC(=O)[C@H](CCCNC(=N)N)NC(=O)[C@H](C)NC(=O)[C@H](CO)NC(=O)[C@H](CC(C)C)NC(=O)[C@H](CCC(N)=O)NC(=O)[C@H](CC)NC(=O)[C@H](CC(C)C)NC(=O)[C@@H](NC(=O)[C@H](CCCN)NC(=O)[C@H](CCCNC(=N)N)NC(=O)[C@H](Cc1ccc(O)cc1)NC(=O)[C@H](CO)NC(=O)[C@H](CCC(N)=O)NC(=O)[C@@H](NC(=O)[C@H](Cc1ccccc1)NC(=O)[C@@H](NC(=O)[C@H](C)NC(=O)[C@H](CC(=O)O)NC(=O)[C@H](C)NC(=O)[C@H](Cc1ccc(O)cc1)NC)[C@@H](C)CC)[C@@H](C)O)C(C)C)[C@@H](C)CC)C(=O)N[C@@H](CC(=O)O)C(=O)NCCCCNC(=N)N [Peptide P-20356, [N—Me-Tyr^1, Gln^8, Orn^12, Abu^15, Orn^21, Nle^27, Asp^28, Agm^29]hGHRH(1-29) NH2] (H-[NMeY]ADAIFTQSYR[Orn]VL[Abu]QLSAR[Orn]LLQDI[Nle]D-Agmatine) | 51 ± 2.7 % | 88 ± 0.6% | – | = | = | = | = | = | ↑ | = | = | = | = | = | = | = | = | = | slightly better preserved |
| CCCC[C@H](NC(=O)[C@@H](NC(=O)[C@H](CC(=O)O)NC(=O)[C@H](CCC(N)=O)NC(=O)[C@H](CC(C)C)NC(=O)[C@H](CC(C)C)NC(=O)[C@H](CCCN)NC(=O)[C@H](CCCNC(=N)N)NC(=O)[C@H](C)NC(=O)[C@H](CO)NC(=O)[C@H](CC(C)C)NC(=O)[C@H](CCC(N)=O)NC(=O)[C@H](CC)NC(=O)[C@H](CC(C)C)NC(=O)[C@@H](NC(=O)[C@H](CCCN)NC(=O)[C@H](CCCNC(=N)N)NC(=O)[C@H](Cc1ccc(O)cc1)NC(=O)[C@H](CO)NC(=O)[C@H](CCC(N)=O)NC(=O)[C@@H](NC(=O)[C@H](Cc1ccccc1)NC(=O)[C@@H](NC(=O)[C@H](C)NC(=O)[C@H](CC(=O)O)NC(=O)[C@H](C)NC(=O)CCc1ccc(O)cc1)[C@@H](C)CC)[C@@H](C)O)C(C)C)[C@@H](C)CC)C(=O)N[C@@H](CC(=O)O)C(=O)NCCCCNC(=N)N [JI-38, [Dat^1, Gln^8, Orn^12,21, Abu^15, Nle^27, Asp^28, Agm^29]hGHRH(1-29)NH2, reference compound] (Desaminotyrosyl-ADAIFTQSYR[Orn]VL[Abu]QLSAR[Orn]LLQDI[Nle]D-Agmatine) | 47 ± 2.4 % | 88 ± 1.2% | – | – | – | – | – | – | – | – | – | – | – | – | – | – | – | – | slightly better preserved |
